Experimental data reported in patent US5281603A, “Angiotensin II receptor blocking 2,3,6 substituted quinazolinones” (American Cyanamid Company, priority 1993, dated 1994).

Biological target: T1, Angiotensin II Receptor (Bos taurus, UniProt P25104)
T1 construct: The brownish tissue forming the adrenal cortex is scraped off and finely minced with scissors before homogenization; from tissue; host or cells: beef adrenal cortex, microsomal membranes (100,000×g pellet)
T1 sequence (P25104 1-359): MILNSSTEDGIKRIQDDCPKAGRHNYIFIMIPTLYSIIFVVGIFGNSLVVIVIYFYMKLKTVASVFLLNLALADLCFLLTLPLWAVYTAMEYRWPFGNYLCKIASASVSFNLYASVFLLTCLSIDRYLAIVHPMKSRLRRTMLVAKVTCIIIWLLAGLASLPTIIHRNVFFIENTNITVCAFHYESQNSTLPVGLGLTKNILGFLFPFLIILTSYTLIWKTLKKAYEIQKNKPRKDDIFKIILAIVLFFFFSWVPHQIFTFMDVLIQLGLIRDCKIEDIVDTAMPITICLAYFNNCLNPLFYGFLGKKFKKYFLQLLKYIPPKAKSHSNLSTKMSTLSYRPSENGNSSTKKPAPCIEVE
Assay: Angiotensin II Receptor Binding: displacement of [^125 I](Sar^1,Ile^8)AngII from beef adrenal cortex membranes
Set-up: species or system beef (bovine)
Conditions: [^125 I](Sar^1,Ile^8)AngII, beef adrenal membranes, 60 min, room temperature
From the text: Beef adrenals are obtained from a local slaughter house (Maxwell-Cohen). [^125 I](Sar^1,Ile^8)AngII, S.A. 2200 Ci/mmole, is purchased from Dupont (NEN®, Boston, Mass.). All unlabeled AngII analogs, Dimethylsulfoxide (DMSO), nucleotides, bovine serum albumin (BSA) are purchased from Sigma Chemical Co., St. Louis, Mo. U.S.A.
Approximately sixteen (16) to twenty (20) beef adrenal glands are processed as follows: fresh adrenal glands received on crushed ice are cleaned of fatty tissues and the tough membranes encapsulating the glands are removed and discarded. The brownish tissue forming the adrenal cortex is scraped off and finely minced with scissors before homogenization. Care is taken to avoid contamination with medullary tissue during dissection. The scraped cortices are suspended in twenty volumes of an ice-cold buffer medium consisting of 10 mM Tris.HCl (pH 7.4 at 22° C.) and containing 1.0 mM EDTA and 0.2M sucrose. Unless otherwise indicated, all subsequent operations are done at 4° C. […] The homogenate is centrifuged first at low speed (3,000×g) for 10 min. […] This P2 pellet is discarded and the liquid phase is carefully decanted off in clean centrifuge tubes and recentrifuged at high speed (100,000×g) for 60 min. The translucent final pellet is harvested and combined in a small volume (20-50.0 ml) of 50.0 mM Tris.HCl buffer, pH 7.2. […] The pelleted membrane is reconstituted in 50.0 mM Tris.HCl buffer containing 0.1 mM of phenylmethylsulfonyl fluoride (PMSF) to give approximately a protein concentration of 2.5 mg per ml of tissue suspension. The membrane preparation is finally aliquoted in 1.0 ml volumes and stored at -70° C. until use in the binding assays. […]
The wells are left undisturbed for 60 min. at room temperature. […] The filters are removed from the filter grid and counted in a Parkard® Cobra Gamma Counter for 1 min. […] The binding data are analyzed by the non-linear interactive "LUNDON-1" program (LUNDON SOFTWARE Inc., Cleveland, Ohio U.S.A.).

CCCCc1nc2ccc(C3=NN[C@H]4C(=O)N(C)C(=O)[C@@H]34)cc2c(=O)n1Cc1ccc(-c2ccccc2-c2nnn[nH]2)cc1 (relative stereo) [Example 7]
IC50: 180 nM

CCCCc1nc2ccc([C@@]3(C)NN[C@@H]4C(=O)N(C)C(=O)[C@@H]43)cc2c(=O)n1Cc1ccc(-c2ccccc2-c2nnn[nH]2)cc1 (relative stereo) [Example 10, (3-alpha,3aalpha,6aalpha)-3-[2-butyl-3,4-dihydro-4-oxo-3-[[2'-(1H-tetrazol-5-yl)-[1,1'-biphenyl]-4-yl]methyl]-6-quinazolinyl]-2,3,3a,6a-tetrahydro-3,5-dimethyl-pyrrolo[3,4-c]pyrazole-4,6(1H,5H)-dione]
IC50: 880 nM
